Laboratory results taken from BindingDB's records for patent US12215173 (Humanwell Pharmaceutical US, 2025).
Square brackets hold non-standard residues; d marks the D form. Peptide text beside a SMILES is read from it. * marks the point of attachment. Pyrrolidino(3-NH2-3-COOH) = NC1(C(=O)O)CCN(*)C1; dTic = O=C(O)[C@H]1Cc2ccccc2CN1

What was measured:
Assay in all cases: Opioid Receptor Binding Assay
[1] = target: Delta-type opioid receptor (Homo sapiens, UniProt P41143)
Protocol: (§1) The assay buffers used for opioid receptor binding studies were 50 mM Tris HCl (pH 7.4) for KOR, 50 mM Tris HCl (pH 7.4) with 5 mM MgCl2 for MOR, and 50 mM Tris HCl (pH 7.4) with 10 mM MgCl2 plus 1 mM EDTA for DOR. Wash buffer contained 50 mM Tris HCl at pH 7.4. […] DADLE, which were used as the competing radioligands for mu, kappa and delta receptors, respectively.

Mu-type opioid receptor = Mu-type opioid receptor (Homo sapiens, UniProt P35372)
Chain of Mu-type opioid receptor (P35372 whole entry): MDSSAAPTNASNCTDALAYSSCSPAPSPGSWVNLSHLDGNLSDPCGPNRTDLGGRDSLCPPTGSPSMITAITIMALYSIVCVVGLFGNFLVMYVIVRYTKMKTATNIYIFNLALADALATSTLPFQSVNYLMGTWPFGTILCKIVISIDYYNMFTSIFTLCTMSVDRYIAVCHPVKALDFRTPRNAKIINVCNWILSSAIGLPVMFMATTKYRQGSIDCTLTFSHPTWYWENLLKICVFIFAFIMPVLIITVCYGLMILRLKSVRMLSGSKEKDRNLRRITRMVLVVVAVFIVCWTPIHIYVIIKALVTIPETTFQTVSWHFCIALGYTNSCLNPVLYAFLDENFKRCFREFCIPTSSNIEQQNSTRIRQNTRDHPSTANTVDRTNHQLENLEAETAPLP
Protocol: as §1

[2] = target: Kappa-type opioid receptor (Homo sapiens, UniProt P41145)
Chain of Kappa-type opioid receptor (P41145 whole entry): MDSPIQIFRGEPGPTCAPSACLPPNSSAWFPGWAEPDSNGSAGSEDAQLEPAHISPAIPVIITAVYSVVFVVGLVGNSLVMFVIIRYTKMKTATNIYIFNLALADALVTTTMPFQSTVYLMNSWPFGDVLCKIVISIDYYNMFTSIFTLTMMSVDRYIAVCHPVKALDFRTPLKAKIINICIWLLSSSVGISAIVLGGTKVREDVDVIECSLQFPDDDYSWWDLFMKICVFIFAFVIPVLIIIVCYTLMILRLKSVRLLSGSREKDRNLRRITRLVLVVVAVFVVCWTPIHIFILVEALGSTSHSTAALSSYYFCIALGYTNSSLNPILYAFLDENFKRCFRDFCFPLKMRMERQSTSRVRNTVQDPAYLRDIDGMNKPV
Protocol: as §1

Chain of Delta-type opioid receptor (P41143 whole entry): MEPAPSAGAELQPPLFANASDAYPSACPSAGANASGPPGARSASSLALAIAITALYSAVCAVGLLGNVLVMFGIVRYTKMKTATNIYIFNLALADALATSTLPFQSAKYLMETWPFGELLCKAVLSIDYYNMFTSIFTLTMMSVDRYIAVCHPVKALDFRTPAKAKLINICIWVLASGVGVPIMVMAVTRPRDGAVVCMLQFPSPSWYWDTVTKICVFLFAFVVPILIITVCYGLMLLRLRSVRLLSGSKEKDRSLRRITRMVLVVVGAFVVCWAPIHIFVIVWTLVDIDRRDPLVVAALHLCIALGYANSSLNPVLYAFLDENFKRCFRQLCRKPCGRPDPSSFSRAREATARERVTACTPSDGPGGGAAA

Row | SMILES | IC50 [1] [µM] | IC50 (Mu-type opioid receptor) [µM] | IC50 [2] [µM]
1 | CC(C)C[C@@H](NC(=O)[C@@H](Cc1ccccc1)NC(=O)[C@H](N)Cc1ccccc1)C(=O)N[C@H](CCCCN)C(=O)NCc1cccc(C(=O)O)n1 [US12215173, Compound 13-6] | > 10 | > 10 | 0.00945
2 | CC(C)C[C@@H](NC(=O)[C@@H](Cc1ccccc1)NC(=O)[C@H](N)Cc1ccccc1)C(=O)N[C@H](CCCCN)C(=O)NCCC[C@H](N)C(=O)O [US12215173, Compound 13-44] | > 10 | > 10 | 0.00046
3 | CC(C)C[C@@H](NC(=O)[C@@H](Cc1ccccc1)NC(=O)[C@H](N)Cc1ccccc1)C(=O)N[C@H](CCCCN)C(=O)N1CCC(O)(CO)CC1 [US12215173, Compound 13-65] | > 10 | > 10 | 0.00045
4 | COC(=O)C1(N)CCN(C(=O)[C@@H](CCCCN)NC(=O)[C@H](NC(=O)[C@@H](Cc2ccccc2)NC(=O)[C@H](N)Cc2ccccc2)C(C)(C)C)CC1 [US12215173, Compound 100] | > 10 | > 10 | 0.013
5 | COC(=O)C1(N)CCN(C(=O)[C@@H](CCCCN)NC(=O)[C@H](NC(=O)[C@@H](Cc2ccccc2)NC(=O)[C@H](N)Cc2ccccc2)C(C)(C)C)C1 (stereo partly specified) [US12215173, Compound 103] | > 10 | > 10 | 0.0144
6 | CC(C)C[C@@H](NC(=O)[C@@H](Cc1ccccc1)NC(=O)[C@H]1Cc2ccccc2CN1)C(=O)N[C@H](CCCCN)C(=O)N1CCC(N)(C(=O)O)C1 (stereo partly drawn) [US12215173, Compound 169] (H-[dTic][dF][dL][dK]-{Pyrrolidino(3-NH2-3-COOH)}) | – | – | 0.0888
7 | COC(=O)C1(N)CCN(C(=O)[C@@H](CCCCN)NC(=O)[C@@H](CC(C)C)NC(=O)[C@@H](Cc2ccccc2)NC(=O)[C@H]2Cc3ccccc3CN2)CC1 [US12215173, Compound 171] | > 10 | > 10 | 0.00083
8 | CC(C)C[C@@H](NC(=O)[C@@H](Cc1ccccc1)NC(=O)[C@H]1Cc2ccccc2CN1)C(=O)N[C@H](CCCCN)C(=O)N1CCC(N)(C(=O)O)CC1 [US12215173, Compound 172] | > 10 | > 10 | 0.00402
9 | COC(=O)C1(N)CCN(C(=O)[C@@H](CCCCN)NC(=O)[C@@H](CC(C)C)NC(=O)[C@@H](Cc2ccccc2)NC(=O)[C@H](N)Cc2ccc(F)cc2)C1 (stereo partly specified) [US12215173, Compound 181] | > 10 | > 10 | 0.0004
10 | COC(=O)C1(N)CCN(C(=O)[C@@H](CCCCN)NC(=O)[C@@H](CC(C)C)NC(=O)[C@@H](Cc2ccccc2)NC(=O)[C@H](N)Cc2ccc(F)cc2)CC1 [US12215173, Compound 184] | > 10 | 8.09 | 0.00025
11 | COC(=O)C1(N)CCN(C(=O)[C@@H](CCCCN)NC(=O)[C@@H](CC(C)C)NC(=O)[C@@H](Cc2ccccc2)NC(=O)[C@H](N)Cc2ccc(C(F)(F)F)cc2)C1 (stereo partly specified) [US12215173, Compound 194] | > 10 | 7.34 | 0.00407
